# Test results as given in patent publication US11117947B2, “Double-acylated GLP-1 derivatives” (Novo Nordisk A/S, priority 2011, dated 2021).
# Numbered stars: 1 amine (or outer) side, 2 acyl side, 3 side chain; on linkers, the order of the positions; unused ones are H or OH. Square brackets hold non-standard residues; d marks the D form. Side chains are listed from the residue outwards. Peptide text beside a SMILES is read from it. * marks the point of attachment. Decanoyl(10-(4-HOOC-PhO)) = O=C(O)c1ccc(OCCCCCCCCCC(=O)*)cc1; γGlu = O=C(O)[C@H](CCC(=O)[*:2])N[*:1]; C14 diacid = O=C(O)CCCCCCCCCCCCC(=O)*; AEEA = NCCOCCOCC(=O)O; Aib = CC(C)(N)C(=O)O
# Tests used:
# human GLP-1 receptor [1] = biological target: T1, human GLP-1 receptor (Homo sapiens, UniProt P43220); assay: In vitro potency: stimulation of cAMP formation (AlphaScreen cAMP Assay) in membranes expressing the human GLP-1 receptor; assay type: biochemical; details: membranes from BHK467-12A (tk-ts13) expressing the human GLP-1 receptor
# T1 construct: expressed in transfected cells; membranes
# Method: Purified plasma membranes from a stable transfected cell line, BHK467-12A (tk-ts13), expressing the human GLP-1 receptor were stimulated with the GLP-1 analogue or derivative in question, and the potency of cAMP production was measured using the AlphaScreen™ cAMP Assay Kit from Perkin Elmer Life Sciences. The basic principle of the AlphaScreen Assay is a competition between endogenous cAMP and exogenously added biotin-cAMP. The capture of cAMP is achieved by using a specific antibody conjugated to acceptor beads.
# A stable transfected cell line and a high expressing clone were selected for screening. The cells were grown at 5% CO2 in DMEM, 5% FCS, 1% Pen/Strep (Penicillin/Streptomycin) and 0.5 mg/ml of the selection marker G418.
# Cells at approximately 80% confluence were washed 2× with PBS and harvested with Versene (aqueous solution of the tetrasodium salt of ethylenediaminetetraacetic acid), centrifuged 5 min at 1000 rpm and the supernatant removed. The additional steps were all performed on ice. The cell pellet was homogenised by the Ultrathurax for 20-30 s in 10 ml of Buffer 1 (20 mM Na-HEPES, 10 mM EDTA, pH=7.4), centrifuged 15 min at 20,000 rpm and the pellet resuspended in 10 ml of Buffer 2 (20 mM Na-HEPES, 0.1 mM EDTA, pH=7.4). The suspension was homogenised for 20-30 s and centrifuged 15 min at 20,000 rpm. Suspension in Buffer 2, homogenisation and centrifugation was repeated once and the membranes were resuspended in Buffer 2. The protein concentration was determined and the membranes stored at −80° C. until use.
# The final volume per well was 50 μl.
# AlphaScreen cAMP Assay Kit from Perkin Elmer Life Sciences (cat. No: 6760625M); containing Anti-cAMP Acceptor beads (10 U/μl), Streptavidin Donor beads (10 U/μl) and Biotinylated-cAMP (133 U/μl).
# cAMP standard (dilution factor in assay=5): cAMP Solution: 5 μL of a 5 mM cAMP-stock+495 μL AlphaScreen Buffer.
# Membranes were prepared from hGLP-1/BHK 467-12A cells with a concentration of 6 μg/well corresponding to 0.6 mg/ml (the amount of membranes used pr. well may vary)
# “No membranes”: Acceptor Beads (15 μg/ml final) in AlphaScreen buffer
# “6 μg/well membranes”: membranes+Acceptor Beads (15 μg/ml final) in AlphaScreen buffer
# An aliquot (10 μl) of “No membranes” was added to the cAMP standard (per well in duplicate wells) and the positive and negative controls
# An aliquot (10 μl) of “6 μg/well membranes” was added to GLP-1 and analogues (per well in duplicate or triplicate wells)
# Pos. Control: 10 μl “no membranes”+10 μl AlphaScreen Buffer
# Neg. Control: 10 μl “no membranes”+10 μl cAMP Stock Solution (50 μM)
# 1. Make the AlphaScreen Buffer.
# 2. Dissolve and dilute the GLP-1/Analogues/cAMP standard in AlphaScreen Buffer.
# 4. Add the cAMP/GLP-1/Analogues to the plate: 10 μl per well.
# 5. Prepare membrane/Acceptor Beads solution and add this to the plates: 10 μl per well.
# 6. Add the Donor Beads: 30 μl per well.
# [2] = Estimate of oral bioavailability: gut injection in rat (caprate), exposure in plasma; assay type: in vivo; details: injection in jejunum, 1000 uM in 55 mg/ml sodium caprate, plasma concentration (pM) at 30 min divided by dosing solution concentration (μM), mean n=4
# Method in brief: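 Male Sprague Dawley rats (~240 g, n=4) received 100 μl of 1000 uM derivative in 55 mg/ml sodium caprate by catheter into proximal or mid jejunum. Tail-vein EDTA plasma was sampled up to 240 min. Peptide was quantified by two-antibody bead chemiluminescence immunoassay, giving mean concentration-time profiles (pmol/l).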
# human GLP-1 receptor [3] = biological target: T1, human GLP-1 receptor; assay: GLP-1 receptor binding: displacement of 125I-GLP-1 (SPA) at low and high albumin; details: 2.0% HSA vs 0.001% HSA
# Method in brief: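 Membranes from hamster cells stably transfected with the receptor, with WGA SPA beads and 0.06 nM [^125I]-GLP-1(7-36)NH2, incubated 120 min at 30 °C with shaking.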
# [4] = Pharmacokinetics in rat: half-life after i.v. administration; assay type: in vivo; details: plasma, iv, 6 nmol/kg, male Sprague Dawley rats, approximately 4 rats per group, read-out: t½/h (half-life in rat) (converted)
# Method: In vivo pharmacokinetic studies in rats were performed with the GLP-1 derivatives of Examples 2, 10, 17-18, and 31, as described in the following. Semaglutide was included for comparison.
# Male Sprague Dawley rats of same age with a body weight of approximately 400 g were obtained from Taconic (Denmark) and assigned to the treatments by simple randomisation on body weight, approximately 4 rats per group, so that all animals in each group were of similar body weight.
# The GLP-1 derivatives (approximately 6 nmol/ml) were dissolved in 50 mM sodium phosphate, 145 mM sodium chloride, 0.05% tween 80, pH 7.4. Intravenous injections (1.0 ml/kg) of the compounds were given through a catheter implanted in the right jugular vein. Blood was sampled from vena sublingualis for 5 days post dosing. Blood samples (200 μl) were collected in EDTA buffer (8 mM) and then centrifuged at 4° C. and 10000 G for 5 minutes. Plasma samples were kept at −20° C. until analyzed for plasma concentration of the respective GLP-1 compound.
# The plasma concentrations of the GLP-1 compounds were determined using a Luminescence Oxygen Channeling Immunoasssay (LOCI), generally as described for the determination of insulin by Poulsen and Jensen in Journal of Biomolecular Screening 2007, vol. 12, p. 240-247. The donor beads were coated with streptavidin, while acceptor beads were conjugated with a monoclonal antibody recognising a mid-/C-terminal epitope of the peptide. Another monoclonal antibody, specific for the N-terminus, was biotinylated. The three reactants were combined with the analyte and formed a two-sited immuno-complex. Illumination of the complex released singlet oxygen atoms from the donor beads, which were channeled into the acceptor beads and triggered chemiluminescence which was measured in an Envision plate reader. The amount of light was proportional to the concentration of the compound.
# Plasma concentration-time profiles were analyzed using Phoenix WinNonLin ver. 6.2, Pharsight Inc., Mountain View, Calif., USA), and the half-life (T1/2) calculated using individual plasma concentration-time profiles from each animal.
# T1 sequence (P43220 24-463): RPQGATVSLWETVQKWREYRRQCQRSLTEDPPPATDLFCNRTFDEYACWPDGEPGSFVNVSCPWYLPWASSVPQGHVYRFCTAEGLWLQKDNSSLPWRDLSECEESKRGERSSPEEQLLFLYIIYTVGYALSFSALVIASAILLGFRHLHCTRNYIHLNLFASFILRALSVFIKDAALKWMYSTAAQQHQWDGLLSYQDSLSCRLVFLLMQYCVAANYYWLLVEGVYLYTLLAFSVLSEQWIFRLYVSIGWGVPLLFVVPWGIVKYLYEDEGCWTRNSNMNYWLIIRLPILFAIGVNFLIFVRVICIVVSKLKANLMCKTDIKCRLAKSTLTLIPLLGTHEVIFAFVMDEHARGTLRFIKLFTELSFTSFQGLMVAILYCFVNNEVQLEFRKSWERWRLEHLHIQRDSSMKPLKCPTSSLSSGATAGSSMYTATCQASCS
Ratio [(IC50/nM) high HSA]/[(IC50/nM) low HSA] (human GLP-1 receptor [3]),half-life [4] [h],SMILES,EC50 (human GLP-1 receptor [1]) [nM],Dose-corrected exposure at 30 min [2]
–,–,"CC[C@H](C)[C@H](NC(=O)[C@H](Cc1ccccc1)NC(=O)[C@H](CCCCNC(=O)COCCOCCNC(=O)COCCOCCNC(=O)CC[C@H](NC(=O)CCCCCCCCCOc1ccc(C(=O)O)cc1)C(=O)O)NC(=O)[C@H](Cc1c[nH]cn1)NC(=O)[C@H](C)NC(=O)[C@H](C)NC(=O)[C@H](CCC(N)=O)NC(=O)[C@H](CCC(=O)O)NC(=O)[C@H](CCC(=O)O)NC(=O)[C@H](CC(C)C)NC(=O)[C@H](Cc1ccc(O)cc1)NC(=O)[C@H](CO)NC(=O)[C@H](CO)NC(=O)[C@@H](NC(=O)[C@H](CC(=O)O)NC(=O)[C@H](CO)NC(=O)[C@@H](NC(=O)[C@H](Cc1ccccc1)NC(=O)[C@@H](NC(=O)CNC(=O)[C@H](CCC(=O)O)NC(=O)[C@H](C)NC(=O)[C@@H](N)Cc1c[nH]cn1)[C@@H](C)O)[C@@H](C)O)C(C)C)C(=O)N[C@@H](CCC(=O)O)C(=O)N[C@@H](Cc1c[nH]c2ccccc12)C(=O)N[C@@H](CC(C)C)C(=O)N[C@H](C(=O)N[C@@H](CCCNC(=N)N)C(=O)NCC(=O)N[C@@H](CCCCNC(=O)COCCOCCNC(=O)COCCOCCNC(=O)CC[C@H](NC(=O)CCCCCCCCCOc1ccc(C(=O)O)cc1)C(=O)O)C(=O)NCC(=O)N[C@@H](CCC(=O)O)C(=O)O)C(C)C [Example 21, N^ε27-[2-[2-[2-[[2-[2-[2-[[(4S)-4-carboxy-4-[10-(4-carboxyphenoxy)decanoylamino]butanoyl]amino]ethoxy]ethoxy]acetyl]amino]ethoxy]ethoxy]acetyl], N^ε36-[2-[2-[2-[[2-[2-[2-[[(4S)-4-carboxy-4-[10-(4-carboxyphenoxy)decanoylamino]butanoyl]amino]ethoxy]ethoxy]acetyl]amino]ethoxy]ethoxy]acetyl]-[Glu^22,His^26,Lys^27,Glu^30,Arg^34,Lys^36]-GLP-1-(7-37)-peptidyl-Glu] (H-HAEGTFTSDVSSYLEEQAAHK([AEEA-AEEA-γGlu-Decanoyl(10-(4-HOOC-PhO))])FIEWLVRGK([AEEA-AEEA-γGlu-Decanoyl(10-(4-HOOC-PhO))])GE-OH; N-terminus and C-terminus assumed)",0.052,140
60,–,"CC[C@H](C)[C@H](NC(=O)[C@H](Cc1ccccc1)NC(=O)[C@H](CCCCNC(=O)COCCOCCNC(=O)COCCOCCNC(=O)CC[C@H](NC(=O)CCCCCCCCCCCCC(=O)O)C(=O)O)NC(=O)[C@H](CCCNC(=N)N)NC(=O)[C@H](C)NC(=O)[C@H](C)NC(=O)[C@H](CCC(N)=O)NC(=O)[C@H](CCCCNC(=O)COCCOCCNC(=O)COCCOCCNC(=O)CC[C@H](NC(=O)CCCCCCCCCCCCC(=O)O)C(=O)O)NC(=O)[C@H](CCC(=O)O)NC(=O)[C@H](CC(C)C)NC(=O)[C@H](Cc1ccc(O)cc1)NC(=O)[C@H](CO)NC(=O)[C@H](CO)NC(=O)[C@@H](NC(=O)[C@H](CC(=O)O)NC(=O)[C@H](CO)NC(=O)[C@@H](NC(=O)[C@H](Cc1ccccc1)NC(=O)[C@@H](NC(=O)CNC(=O)[C@H](CCC(=O)O)NC(=O)C(C)(C)NC(=O)[C@@H](N)Cc1c[nH]cn1)[C@@H](C)O)[C@@H](C)O)C(C)C)C(=O)N[C@@H](C)C(=O)N[C@@H](Cc1c[nH]cn1)C(=O)N[C@@H](CC(C)C)C(=O)N[C@H](C(=O)NCC(=O)O)C(C)C [Example 19, N^ε22-[2-[2-[2-[[2-[2-[2-[[(4S)-4-carboxy-4-(13-carboxytridecanoylamino)butanoyl]amino]ethoxy]ethoxy]acetyl]amino]ethoxy]ethoxy]acetyl], N^ε27-[2-[2-[2-[[2-[2-[2-[[(4S)-4-carboxy-4-(13-carboxytridecanoylamino)butanoyl]amino]ethoxy]ethoxy]acetyl]amino]ethoxy]ethoxy]acetyl]-[Aib^8,Lys^22,Arg^26,Lys^27,His^31,Gly^34]-GLP-1-(7-34)-peptide] (H-H[Aib]EGTFTSDVSSYLEK([AEEA-AEEA-γGlu-C14 diacid])QAARK([AEEA-AEEA-γGlu-C14 diacid])FIAHLVG-OH)",0.052,61
2.1,10,"CC[C@H](C)[C@H](NC(=O)[C@H](Cc1ccccc1)NC(=O)[C@H](CCCCNC(=O)COCCOCCNC(=O)COCCOCCNC(=O)CC[C@H](NC(=O)CCCCCCCCCCCCC(=O)O)C(=O)O)NC(=O)[C@H](CCCNC(=N)N)NC(=O)[C@H](C)NC(=O)[C@H](C)NC(=O)[C@H](CCC(N)=O)NC(=O)[C@H](CCC(=O)O)NC(=O)[C@H](CCC(=O)O)NC(=O)[C@H](CC(C)C)NC(=O)[C@H](Cc1ccc(O)cc1)NC(=O)[C@H](CO)NC(=O)[C@H](CO)NC(=O)[C@@H](NC(=O)[C@H](CC(=O)O)NC(=O)[C@H](CO)NC(=O)[C@@H](NC(=O)[C@H](CCCCNC(=O)COCCOCCNC(=O)COCCOCCNC(=O)CC[C@H](NC(=O)CCCCCCCCCCCCC(=O)O)C(=O)O)NC(=O)[C@@H](NC(=O)CNC(=O)[C@H](CCC(=O)O)NC(=O)C(C)(C)NC(=O)[C@@H](N)Cc1c[nH]cn1)[C@@H](C)O)[C@@H](C)O)C(C)C)C(=O)N[C@@H](C)C(=O)N[C@@H](Cc1c[nH]cn1)C(=O)N[C@@H](CC(C)C)C(=O)N[C@H](C(=O)N[C@@H](CCC(N)=O)C(=O)NCC(=O)N[C@@H](CCCNC(=N)N)C(=O)NCC(=O)O)C(C)C [Example 18, N^ε12-[2-[2-[2-[[2-[2-[2-[[(4S)-4-carboxy-4-(13-carboxytridecanoylamino)butanoyl]amino]ethoxy]ethoxy]acetyl]amino]ethoxy]ethoxy]acetyl], N^ε27-[2-[2-[2-[[2-[2-[2-[[(4S)-4-carboxy-4-(13-carboxytridecanoylamino)butanoyl]amino]ethoxy]ethoxy]acetyl]amino]ethoxy]ethoxy]acetyl]-[Aib^8,Lys^12,Glu^22,Arg^26,Lys^27,His^31,Gln^34]-GLP-1-(7-37)-peptide] (H-H[Aib]EGTK([AEEA-AEEA-γGlu-C14 diacid])TSDVSSYLEEQAARK([AEEA-AEEA-γGlu-C14 diacid])FIAHLVQGRG-OH)",–,–
